# Reference: patent publication EP0587374A2, “Sulfated sterol glycosides and their use against viral infections” (VIROSTAT (NA) NV, priority 1992, dated 1994)
# Values joined by “and” are separate entries in the source; they are usually repeats but may differ in a detail not shown here. Equal values may be shown once. Read-outs that look alike come from different tables or passages of the source.
# Assays:
# [1] = test system: feline immunodeficiency virus (FIV); experiment: In vivo anti-FIV test in an experimentally infected cat: antibody titer, haematology, lymphocyte subsets; conditions: 5 mg/kg s.c. weekly from week 10; for WBC: pre-treatment weeks 0/6: 11.8/13.2; for CD4⁺: pre-treatment weeks 0/6: 460/350; for CD8⁺: pre-treatment weeks 0/6: 1115/721; for CD3⁺: pre-treatment weeks 0/6: 1742/1219; for Lymph.: lymphocytes, pre-treatment weeks 0/6: 2600/2380
# Protocol: The substance was tested at a dosage rate of 5 mg/kg body mass on a cat infected with feline immunodeficiency virus, administered by subcutaneous injection at weekly intervals over a period of 13 weeks.
# A cat which had been experimentally infected with a strain of feline immunodeficiency virus (FIV) using the blood of a naturally infected cat was used for this experiment. […] The haematological and immunological parameters were monitored during the dosage period as described below.
# A specimen of blood was used to determine the antibody titer to FIV using a commercial kit (CITE Combo, Indexx Corporation, Portland). The serum was diluted with saline solution and each serum diulation was tested in order to determine the highest dilution yielding positive results. This dilution was subsequently used as the cut-off titer of positivity. The titer of antibodies was determined at regular intervals during the treatment period.
# Whole blood was diluted by 50% with RPMI medium and layered on to Histopaque (Sigma) and centrifuged at 200 gravities for 25 minutes. The cells at the interface were collected and washed three times with RPMI. These cells represented the mononuclear cells of the blood and were used for determining the percentage of T-cells and the subsets thereof as described hereunder.
# Cells (1 x 10⁶) were incubated in test tubes with aliquots of monoclonal antibody reactive with CD3, CD4 and CD8 antigens. The mixtures of different antibodies were conducted as follows: CD3-FITC + CD4-PE CD3-FITC + CD8-PE
# The tubes were incubated for 20 minutes at room temperature and following two washes with phosphate-buffered saline solution (PBS), the cells were fixed with 400 µℓ PBS containing 0.5% formaldehyde.
# Cell fluoresence was assessed using a FACScan cytometer. […] The analysis was conducted using the LYSIS II software programme after having set a lymphocyte gate on the FSC versus SSC scattergram. All the results were expressed as percentage positive lymphocytes, i.e. cells which co-expressed CD3 and CD4 or CD3 and CD8 markers. In this way, CD4⁺ T cells, and in a similar fashion, CD8⁺ NK cells, were excluded from the CD3⁺ CD8⁺ T-suppressor cells.
# Absolute cell numbers were calculated from basic haematology conducted on an aliquot of the whole blood. From the percentage lymphocyte differential counts, absolute values for positive cells could be calculated. This was conducted for all subsets analyzed.
# blood clotting = conditions: 50 µg/mℓ, prothrombin time in vitro
# Protocol: Prothrombin Time was measured according to standard techniques using CaCl₂, citrated-plasma and prothrombin.
# Feline Herpes virus = conditions: 50 µg/mℓ
# [2] = Protocol: The test animal received food and water without restriction.
# On Tuesdays and Fridays blood samples were taken for blood chemistry, haematology and the measurement of trough plasma levels of the drug. These samples were taken prior to the administration of the drug, but at intervals as indicated in Figure 2 (which is a histogram of blood concentration levels against time) and Table 5. Blood samples were also taken 5, 10 and 15 minutes after drug adminstration in order to assess the peak plasma concentrations achieved. After 30 days the baboon was sacrificed and tissue samples were collected for testing.
# [3] = for Elimination half-life: open two-compartment model
# Excerpt: Two test animals were used. […] Anaesthesia was maintained with halothane. […] Twenty-five blood samples (1.5 mℓ each) were drawn from each test animal at intervals appropriate to the pharmacokinetic modelling. […]
# [4] = test system: Peripheral blood lymphocytes; experiment: In vitro cytotoxicity, Trypan Blue exclusion after 3 days of culture; conditions: for % Viability: 3 days, means of 4 counts
# Protocol: Peripheral blood lymphocytes were prepared from normal blood. Cells were cultured for 3 days in complete medium [(RPMI, a commercially available so-called standard salt solution) + 10 % foetal calf serum (FCS) + […]] in the presence/absence of phytohemagglutinin (PHA). Duplicate wells were set up. Incubation was at 37°C and 5 % CO₂.
# On the third day, cell viabilities were determined using the Trypan Blue exclusion test.
# Those products which were water soluble, were made up at 8 mg/mℓ stocks in sterile distilled water and diluted 1:10 in RPMI medium and again diluted 1:10 directly in the wells containing the cells in complete medium. The final concentrations were thus 80 µg/mℓ. For the lower dilutions, the 8 mg/mℓ stock was diluted 1:2 or 1:4 or 1:8 in water before being diluted in the RPMI medium.
# For those products which were DMSO-soluble, the stocks were made'up at 8 mg/mℓ in 100 % DMSO. This stock was diluted 1:10 in 100 % FCS and diluted 1:10 directly in the wells containing the cells in RPMI medium only. The final concentrations were thus 10 % FCS and 1 % DMSO. For the lower dilutions, the 8 mg/mℓ stock was diluted 1:2 or 1:4 or 1:8 with DMSO before the FCS dilution step.
# This stock was diluted in water to yield a working stock of 2 mg/mℓ. The 2 mg/ml stock was diluted 1:20 or 1:10 or 1:5 or 1:2.5 in water and again 1:10 in the wells to give the 10, 20, 40 or 80 µg/mℓ final concentrations respectively.
# [5] = haematology summary, following initial drug administration
smiles,measurement,setting,value
"CC[C@H](CC[C@@H](C)[C@H]1CC[C@H]2[C@@H]3CC=C4C[C@@H](O[C@@H]5O[C@H](COS(=O)(=O)O)[C@@H](OS(=O)(=O)O)[C@H](OS(=O)(=O)O)[C@H]5OS(=O)(=O)O)CC[C@]4(C)[C@H]3CC[C@]12C)C(C)C [BSSG-(SO₄⁻)₄, β-Sitosteryl β-D-glucoside tetra-sulphate]",WBC,[1]; time 12 weeks,14.7 x10⁹/ℓ
same,CD4⁺,[1]; time 12 weeks,315 µL
same,CD8⁺,[1]; time 12 weeks,432 µL
same,CD3⁺,[1]; time 12 weeks,964 µL
same,WBC,[1]; time 17 weeks,14.0 x10⁹/ℓ
same,CD4⁺,[1]; time 17 weeks,763 µL
same,CD8⁺,[1]; time 17 weeks,1066 µL
same,CD3⁺,[1]; time 17 weeks,2035 µL
same,WBC,[1]; time 23 weeks,15.5 x10⁹/ℓ
same,CD4⁺,[1]; time 23 weeks,850 µL
same,CD8⁺,[1]; time 23 weeks,1610 µL
same,CD3⁺,[1]; time 23 weeks,2894 µL
same,Lymph.,[1]; time 12 weeks,2940 µL
same,Lymph.,[1]; time 17 weeks,3220 µL
same,Lymph.,[1]; time 23 weeks,3990 µL
same,effect on blood clotting,blood clotting,did not affect blood clotting
same,cytopathic effect of Feline Herpes virus,Feline Herpes virus,delayed by a day
same,behavioral characteristics,"[2]; 5 mg/kg i.v. daily, period of treatment",remained unchanged
same,BSSG-³⁵(SO₄⁻)₄ PLASMA LEVEL,"[2]; 5 mg/kg i.v. daily, sample 3-4-92 (Fri: Pre IV), trough",56.0 µg/mL
same,BSSG-³⁵(SO₄⁻)₄ PLASMA LEVEL,"[2]; 5 mg/kg i.v. daily, sample 7-4-92 (Tues: Pre IV), trough",71.0 µg/mL
same,BSSG-³⁵(SO₄⁻)₄ PLASMA LEVEL,"[2]; 5 mg/kg i.v. daily, sample 10-4-92 (Fri: 10 min Post IV), peak",149.5 µg/mL
same,BSSG-³⁵(SO₄⁻)₄ PLASMA LEVEL,"[2]; 5 mg/kg i.v. daily, sample 10-4-92 (Fri: Pre IV), trough",52.5 µg/mL
same,BSSG-³⁵(SO₄⁻)₄ PLASMA LEVEL,"[2]; 5 mg/kg i.v. daily, sample 14-4-92 (Tues: 15 min Post IV), peak",149.7 µg/mL
same,BSSG-³⁵(SO₄⁻)₄ PLASMA LEVEL,"[2]; 5 mg/kg i.v. daily, sample 14-4-92 (Tues: Pre IV), trough",65.0 µg/mL
same,BSSG-³⁵(SO₄⁻)₄ PLASMA LEVEL,"[2]; 5 mg/kg i.v. daily, sample 15-4-92 (Wed: 4 hr Post IV)",72.5 µg/mL
same,BSSG-³⁵(SO₄⁻)₄ PLASMA LEVEL,"[2]; 5 mg/kg i.v. daily, sample 27-3-92 (Fri: Pre IV), trough",60.3 µg/mL
same,BSSG-³⁵(SO₄⁻)₄ PLASMA LEVEL,"[2]; 5 mg/kg i.v. daily, sample 31-3-92 (Tues: Pre IV), trough",59.0 µg/mL
same,24-hour post-dose-trough plasma levels,"[2]; 5 mg/kg i.v. daily, subsequent samples of the study period",> 50 µg/mL
same,BSSG-³⁵(SO₄⁻)₄ PLASMA LEVEL,"[2]; 100 mg (5 mg/kg) i.v. daily Mon-Fri from 16-3-92, sample 24-3-92 (Tues: Pre IV), trough",33.8 µg/mL
same,autopsy findings,[2]; after 30 days of 5 mg/kg i.v. daily,no organ discoloration or change in organ texture
same,"chemical pathology, overall conclusion","[2]; blood chemistry twice a week, Table 6",no direct proof that the changes occurring in time were due to direct toxicity of the substance
same,Haemoglobin (Hb),[2]; general decrease during drug administration from base-line 14.8,12.5 g/dL
same,haematocrit (Hct),[2]; general decrease during drug administration from base-line 43.4,36.9%
same,monocyte count,"[2]; haematology summary, after the second week of drug administration, still present at the end",Absolute monocytopaenia
same,total white cell count,"[2]; haematology summary, following drug administration",slight increase in total white cell count but within normal range
same,lymphocyte count,[2]; [5],transient absolute lymphocytosis
same,platelet count,[2]; [5],transient decrease in platelet count (but still within normal range)
same,haemolysis (Hb and Hct trend),"[2]; haematology summary, supported by biochemical and bone marrow iron findings",slight haemolysis
same,FREE HAEMOGLOBIN CONCENTRATION,"[2]; plasma, 5 mg/kg i.v. daily, sample 7-4-92 (Tues: Pre IV), before treatment 0.004, 0.005",0.005 mg/dL
same,plasma levels of the drug sustained,[2]; single daily i.v. injection of 5 mg/kg body mass over a month long period,50 to 170 µg/mL
same,histological findings,[2]; tissue samples after 30 days of 5 mg/kg i.v. daily,not severe and were fairly non-specific
same,bone marrow cellularity,"[2]; trephine biopsy after 30 days, slightly lower than that of an adult man",approximately 40%
same,major routes of excretion,"[2]; ³⁵S isotope in urine samples and faeces, high levels in the bile",via the kidney and the liver
same,Elimination half-life,[3]; High Dose (750 mg) i.v.,22 h
same,Peak plasma concentration,"[3]; High Dose (750 mg), i.v. infusion 30 minutes, total dose 55.6 mg/kg",364 µg/mL
same,Elimination half-life,[3]; Low Dose (120 mg) i.v.,12 h
same,Peak plasma concentration,"[3]; Low Dose (120 mg), i.v. infusion 15 minutes, total dose 7.14 mg/kg",102 µg/mL
same,haemolysis in the blood samples,[3]; baboon receiving the lower dose (120 mg i.v.),no evidence of haemolysis
same,haemolysis in the blood samples,[3]; high-dose test animal (750 mg i.v.),macroscopic evidence of haemolysis
same,plasma elimination half-life,"[3]; i.v., range over the two doses (120 mg, 750 mg)",12 - 20 hours and 12 and 22 hours
same,haemodynamic effects,"[3]; intravenous administration, very high plasma concentrations",did not appear to be any deleterious haemodynamic effects
same,% Viability,[4]; Cells + PHA + 10 µg/mℓ,80%
same,% Viability,[4]; Cells + PHA + 20 µg/mℓ,85%
same,% Viability,[4]; Cells + PHA + 40 µg/mℓ,82%
same,% Viability,[4]; Cells + PHA + 80 µg/mℓ,83%
same,"viability of test cells, trend with concentration",[4]; from 10 to 80 µg/mℓ,no tendency to toxicity
